In patent US6808699B2, “Methods for imaging pulmonary and cardiac vasculature and evaluating blood flow using dissolved polarized 129Xe” (Medi-Physics, Inc., priority 1998, dated 2004):
Read-outs that look alike come from different tables or passages of the source.

Columns and labels:
[1] = longitudinal relaxation time T1 of polarized 129Xe; assay type: physicochemical, human; conditions: gas in the lung, with decay due to blood uptake included
From the text: As will be appreciated by those of skill in the art, imaging with polarized dissolved gas depends on transport of sufficient surviving polarization or magnetization to tissues of interest. In a preferred embodiment, the tissues of interest include the pulmonary region, and particularly the pulmonary vasculature. As will also be appreciated by those of skill in the art, polarization decays corresponding to the longitudinal relaxation time, T1. Dissolved phase ^129Xe can have a relatively short relaxation time (T1) generally thought to be due to the presence of oxygen and due to paramagnetic deoxyhemoglobin in the blood. For example, T1 for substantially fully oxygenated human cell membranes is estimated at about 15 seconds. Alternatively, T1 in blood has also been estimated as about 5 seconds. See A. Bifone et al., 93 Proc. Natl. Acad. Sci., p. 12932 (1996). Taking the estimated upper limit of about a five second transit time to the heart as discussed above, the xenon polarization can be attenuated to about ⅓ of its starting value at the heart. This relationship supports that TR should be shortened to less than about 2.5 seconds, and preferably less than about 1-2 seconds. Correspondingly, with about a 2.5 second transit time, the magnetization can be calculated as noted above to be about 0.61 of its starting magnetization. […]

[2] = cited from earlier work; for longitudinal relaxation time T1: dissolved phase, estimated

[129Xe] [^129Xe, Xenon-129]
effective T1 [1]: about 33 seconds
longitudinal relaxation time T1 ([2]; in blood, Bifone et al. 1996): about 5 seconds
longitudinal relaxation time T1 ([2]; substantially fully oxygenated human cell membranes): about 15 seconds
gas phase T1 ([2]; gas phase in the lungs, estimated from generally known oxygen related effects): about 35 seconds
